Calls of active or inactive are those of the source. No cut-off for these calls is given here.

Results on one molecule are retold here after ChEMBL document CHEMBL5137131, “Mechanisms of Biochanin A Alleviating PM2.5 Organic Extracts-Induced EMT of A549 Cells through the PI3K/Akt Pathway” (J Nat Prod, 2022).

The target of test [1] is Serine/threonine-protein kinase AKT (Homo sapiens) (UniProt P31751+Q9Y243+P31749). Briefly: Inhibition of PM2.5 induced Akt phosphorylation upregulation in human A549 cells at 10 uM by Western blot analysis relative to control. The test is classed as cell-based. (A western blot detects proteins with antibodies after separation by electrophoresis.)
Chain of Serine/threonine-protein kinase AKT (Homo sapiens) (P31749 whole entry, looked up): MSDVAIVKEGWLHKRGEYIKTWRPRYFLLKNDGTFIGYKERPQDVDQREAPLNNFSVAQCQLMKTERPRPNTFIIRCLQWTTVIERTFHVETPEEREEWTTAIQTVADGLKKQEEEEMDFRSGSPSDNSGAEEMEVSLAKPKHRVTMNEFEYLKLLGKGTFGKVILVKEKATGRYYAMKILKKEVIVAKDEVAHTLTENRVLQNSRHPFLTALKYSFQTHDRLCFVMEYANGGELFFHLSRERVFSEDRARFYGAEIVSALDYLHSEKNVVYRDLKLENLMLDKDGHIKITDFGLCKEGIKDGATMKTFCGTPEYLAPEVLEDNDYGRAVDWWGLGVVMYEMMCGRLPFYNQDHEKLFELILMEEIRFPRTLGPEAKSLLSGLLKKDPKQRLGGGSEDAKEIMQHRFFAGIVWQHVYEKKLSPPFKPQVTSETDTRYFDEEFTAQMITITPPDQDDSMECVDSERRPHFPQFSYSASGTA
Chain of Serine/threonine-protein kinase AKT (Homo sapiens) (P31751 whole entry, looked up): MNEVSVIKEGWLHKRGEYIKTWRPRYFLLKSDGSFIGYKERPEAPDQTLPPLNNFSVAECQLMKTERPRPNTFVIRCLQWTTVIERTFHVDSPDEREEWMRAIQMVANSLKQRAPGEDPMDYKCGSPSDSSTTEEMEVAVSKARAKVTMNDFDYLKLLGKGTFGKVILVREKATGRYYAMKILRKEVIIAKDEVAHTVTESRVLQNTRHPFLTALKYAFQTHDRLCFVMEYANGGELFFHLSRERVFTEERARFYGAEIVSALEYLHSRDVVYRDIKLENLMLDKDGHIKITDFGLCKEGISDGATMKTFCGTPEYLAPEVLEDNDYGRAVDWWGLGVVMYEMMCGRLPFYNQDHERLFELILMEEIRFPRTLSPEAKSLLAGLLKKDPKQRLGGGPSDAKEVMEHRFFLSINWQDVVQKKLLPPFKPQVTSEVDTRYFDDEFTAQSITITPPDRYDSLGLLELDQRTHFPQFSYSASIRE
Chain of Serine/threonine-protein kinase AKT (Homo sapiens) (Q9Y243 whole entry, looked up): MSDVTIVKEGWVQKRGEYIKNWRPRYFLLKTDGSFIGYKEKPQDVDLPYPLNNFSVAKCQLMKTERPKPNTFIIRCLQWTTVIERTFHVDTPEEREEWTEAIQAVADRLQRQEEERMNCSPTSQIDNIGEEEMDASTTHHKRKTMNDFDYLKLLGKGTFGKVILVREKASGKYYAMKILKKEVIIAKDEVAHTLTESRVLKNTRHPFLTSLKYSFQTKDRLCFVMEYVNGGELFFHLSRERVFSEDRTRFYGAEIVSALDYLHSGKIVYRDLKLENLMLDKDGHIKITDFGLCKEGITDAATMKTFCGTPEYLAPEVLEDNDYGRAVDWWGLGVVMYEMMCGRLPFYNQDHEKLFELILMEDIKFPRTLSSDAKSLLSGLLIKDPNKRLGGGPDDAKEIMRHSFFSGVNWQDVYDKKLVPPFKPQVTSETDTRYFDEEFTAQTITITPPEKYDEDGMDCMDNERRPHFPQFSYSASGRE
The subject of test [2] is A549. The test is described as follows: Downregulation of PM2.5 induced Slug expression in human A549 cells. The format is functional, cell-based.
The test system of test [3] is A549. Briefly: Downregulation of PM2.5 induced Snail expression in human A549 cells. The test is classed as functional, cell-based.
Test [4] concerns A549. Briefly: Inhibition of PM2.5 induced E-cadherin downregulation in human A549 cells at 10 uM by Western blot analysis. The test is classed as functional, cell-based.
Test [5] deals with A549. The test is described as follows: Downregulation of PM2.5 induced vimentin expression in human A549 cells at 10 uM by Western blot analysis. The format is functional, cell-based.
For test [6], the system named is A549. Briefly: Inhibition of PM2.5 induced PI3K expression in human A549 cells at 10 uM by qRT-PCR analysis. The format is functional, cell-based. (In general: Real-time PCR tracks product formation cycle by cycle.)
Test [7] concerns A549. The test is described as follows: Inhibition of PM2.5 induced Akt phosphorylation in human A549 cells at 10 uM […]. The format is functional, cell-based.
Test [8] has as its system A549. The test is described as follows: Inhibition of PM2.5 induced PI3K upregulation in human A549 cells at 10 uM by Western blot analysis relative to control. The format is functional.

For `O=c1cc(N2CCOCC2)oc2c(-c3ccccc3)cccc12` [LY-294002], in test [1], the inhibition (as a rule, the share of the control response that was lost under treatment) worked out at 15%. Besides, the result with A549 [2], in the test on A549 [3] and in the test with A549 [5] was Active. In addition, the inhibition entry in the test with A549 [4], with A549 [6] and in the test with A549 [7] was “Active” throughout. In the test on A549 [8], this molecule came in with an inhibition at 10 µM of 84.3%.
